The target in assay [1] is MAPK14 (human) (UniProt Q16539). Put plainly: Hydroxyurea-induced Hemoglobinization (K562 Cells). To be noted: concentration not given here.
Assay [2] shares this target. Put plainly: Sodium butyrate-induced Hemoglobinization (K562 Cells). To be noted: concentration not given here.

MAPK14 (human), sequence (Q16539 whole entry, looked up): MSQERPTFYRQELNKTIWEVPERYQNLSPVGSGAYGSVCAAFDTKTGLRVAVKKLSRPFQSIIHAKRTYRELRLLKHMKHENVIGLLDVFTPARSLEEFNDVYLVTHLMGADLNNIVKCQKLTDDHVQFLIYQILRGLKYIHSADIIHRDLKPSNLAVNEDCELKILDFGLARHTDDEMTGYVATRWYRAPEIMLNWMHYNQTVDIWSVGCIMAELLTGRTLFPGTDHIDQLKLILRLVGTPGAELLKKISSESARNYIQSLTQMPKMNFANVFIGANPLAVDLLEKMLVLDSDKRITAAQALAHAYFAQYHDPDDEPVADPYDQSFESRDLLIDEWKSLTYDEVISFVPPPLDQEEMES

Molecule `COc1cccc(-c2cc(=O)c3ccccc3o2)c1N` came in with a cell count on MAPK14 (human) [1] of 32.4%.

Regarding `COc1cccc(-c2cc(=O)c3ccccc3o2)c1N.NC(=O)NO`, on MAPK14 (human) [1], the cell count is 54%.

With `CCCC(=O)[O-].[Na+]`, on MAPK14 (human) [2], the cell count was determined as 39.8%.
